Measurements as given in patent publication US20260345619A1 (Principia Biopharma Inc., priority 2023, published 2026).

Test: Loss of asthma control (LOAC) events, 12-week ICS/LABA withdrawal study
Assay type: in vivo, human
Description: The general construct of this 12-week Loss of Asthma Control (LOAC) study consisted of a 4-week standardized ICS/LABA background therapy stabilization phase, a 4or 5-week background therapy withdrawal phase and a 3- or 4-week no background therapy phase, followed by a 4-week post IMP treatment safety follow-up period at the beginning of which, pre-screening asthma controller medications are restarted. Participants had access to short-acting β-agonist (SABA) reliever medication at all times during the protocol.
The primary endpoint was the proportion of patients with LOAC. The key secondary endpoint for the study was change in pre-bronchodilator FEV1 from baseline at EOT.
The primary endpoint was proportion of participants with LOAC during the 12-week treatment period.
Note that if the number of participants in some regions was too low, these regions may have been pooled with other regions. This strategy also applied to all the rest of the analyses where region was one of the covariates.
To assess the consistency in treatment effects across different subgroup levels, subgroup analyses were to be performed for the primary efficacy endpoint with respect to age group, gender, region, and other factors.
Secondary endpoints included pre-bronchodilator FEV1 change from baseline at EOT, ACQ-5 score change from baseline, and AQLQ score change from baseline. Other secondary and exploratory endpoints are described in Table 2.

[1] = 400 mg TID cohort, N = 64, mITT
[2] = 400 mg TID cohort, age <45 years, n = 25
[3] = 400 mg TID cohort, age ≥45 years, n = 39
[4] = 400 mg TID cohort, baseline BMI <25 kg/m^2, n = 12
[5] = 400 mg TID cohort, baseline BMI ≥25-<30 kg/m^2, n = 29
[6] = 400 mg TID cohort, baseline BMI ≥30 kg/m^2, n = 23
[7] = 400 mg TID cohort, baseline weight <60 kg, n = 2
[8] = 400 mg TID cohort, baseline weight ≥60-<90 kg, n = 41
[9] = 400 mg TID cohort, baseline weight ≥90 kg, n = 21
[10] = 400 mg TID cohort, female, n = 39
[11] = 400 mg TID cohort, male, n = 25
[12] = 400 mg TID, N=64, 12 weeks, mITT
[13] = 400 mg TID, 1 exacerbation within 2 years
[14] = 400 mg TID, 2 exacerbations within 2 years
[15] = 400 mg TID, FEV1 reversibility <12 %
[16] = 400 mg TID, FEV1 reversibility ≥12 %
[17] = 400 mg TID, age at onset <12 years
[18] = 400 mg TID, age at onset <18 years
[19] = 400 mg TID, age at onset ≥18-<40 years
[20] = 400 mg TID, age at onset ≥18 years
[21] = 400 mg TID, age at onset ≥40 years

CC(C)(C=C(C#N)C(=O)N1CCC[C@@H](n2nc(-c3ccc(Oc4ccccc4)cc3F)c3c(N)ncnc32)C1)N1CCN(C2COC2)CC1 (mixture of isomers) [rilzabrutinib, (R)-2-[3-[4-amino-3-(2-fluoro-4-phenoxy-phenyl)pyrazolo[3,4-d]pyrimidin-1-yl]piperidine-1-carbonyl]-4-methyl-4-[4-(oxetan-3-yl)piperazin-1-yl]pent-2-enenitrile]
Intervention discontinuation due to lack of efficacy or an AE related to asthma worsening, number [1]: 1
Intervention discontinuation due to lack of efficacy or an AE related to asthma worsening, percentage [1]: (1.6)
Number of participants requiring hospitalization or emergency room visit [1]: 0
Number of participants with LOAC: Yes [1]: 12
Number of participants with increase in ICS ≥4 times the last prescribed ICS dose (or ≥50% of the prescribed ICS dose at baseline if background therapy withdrawal completed) [1]: 0
Number of participants with ≥6 additional reliever puffs of salbutamol/albuterol or levosalbutamol/levalbuterol in a 24 hour period (compared with baseline) on 2 consecutive days [1]: 0
Number of participants with ≥30% reduction from baseline in AM PEF on 2 consecutive days [1]: 10
Participants with LOAC not triggered by use of rescue medication, number [1]: 10
Participants with LOAC not triggered by use of rescue medication, percentage [1]: (15.6)
Participants with LOAC triggered by use of rescue medication, number [1]: 1
Participants with LOAC triggered by use of rescue medication, percentage [1]: (1.6)
Percentage of participants with LOAC: No [1]: (81.3)
Percentage of participants with LOAC: Yes [1]: (18.8)
Percentage of participants with ≥30% reduction from baseline in AM PEF on 2 consecutive days [1]: (15.6)
LOAC incidence, number of participants (400 mg TID cohort, Western Countries, n = 2): 0
LOAC incidence, number of participants [2]: 2
LOAC incidence, percentage [2]: (8.0)
LOAC OR vs. placebo (400 mg TID cohort, age <45 years, 95% CI (0.028, 0.725)): 0.142
LOAC RD vs. placebo (400 mg TID cohort, age <45 years, 95% CI (−0.505, −0.093)): −0.299
LOAC incidence, number of participants [3]: 10
LOAC incidence, percentage [3]: (25.6)
LOAC OR vs. placebo (400 mg TID cohort, age ≥45 years, 95% CI (0.408, 3.236)): 1.149
LOAC RD vs. placebo (400 mg TID cohort, age ≥45 years, 95% CI (−0.165, 0.216)): 0.026
LOAC incidence, number of participants [4]: 3
LOAC incidence, percentage [4]: (25.0)
LOAC OR vs. placebo (400 mg TID cohort, baseline BMI <25 kg/m^2, 95% CI (0.121, 2.801)): 0.583
LOAC RD vs. placebo (400 mg TID cohort, baseline BMI <25 kg/m^2, 95% CI (−0.431, 0.203)): −0.114
LOAC incidence, number of participants [5]: 3
LOAC incidence, percentage [5]: (10.3)
LOAC OR vs. placebo (400 mg TID cohort, baseline BMI ≥25-<30 kg/m^2, 95% CI (0.064, 1.172)): 0.274
LOAC RD vs. placebo (400 mg TID cohort, baseline BMI ≥25-<30 kg/m^2, 95% CI (−0.398, 0.012)): −0.193
LOAC incidence, number of participants [6]: 6
LOAC incidence, percentage [6]: (26.1)
LOAC OR vs. placebo (400 mg TID cohort, baseline BMI ≥30 kg/m^2, 95% CI (0.313, 5.604)): 1.324
LOAC RD vs. placebo (400 mg TID cohort, baseline BMI ≥30 kg/m^2, 95% CI (−0.206, 0.307)): 0.050
LOAC incidence, number of participants [7]: 1
LOAC incidence, percentage [7]: (50.0)
LOAC OR vs. placebo (400 mg TID cohort, baseline weight <60 kg, 95% CI (0.140, 64.262)): 3.000
LOAC RD vs. placebo (400 mg TID cohort, baseline weight <60 kg, 95% CI (−0.485, 0.985)): 0.250
LOAC incidence, number of participants [8]: 8
LOAC incidence, percentage [8]: (19.5)
LOAC OR vs. placebo (400 mg TID cohort, baseline weight ≥60-<90 kg, 95% CI (0.182, 1.392)): 0.503
LOAC RD vs. placebo (400 mg TID cohort, baseline weight ≥60-<90 kg, 95% CI (−0.319, 0.059)): −0.130
LOAC incidence, number of participants [9]: 3
LOAC incidence, percentage [9]: (14.3)
LOAC OR vs. placebo (400 mg TID cohort, baseline weight ≥90 kg, 95% CI (0.095, 2.645)): 0.500
LOAC RD vs. placebo (400 mg TID cohort, baseline weight ≥90 kg, 95% CI (−0.367, 0.153)): −0.107
LOAC incidence, number of participants [10]: 8
LOAC incidence, percentage [10]: (20.5)
LOAC OR vs. placebo (400 mg TID cohort, female, 95% CI (0.224, 1.828)): 0.640
LOAC RD vs. placebo (400 mg TID cohort, female, 95% CI (−0.291, 0.123)): −0.084
LOAC incidence, number of participants [11]: 4
LOAC incidence, percentage [11]: (16.0)
LOAC OR vs. placebo (400 mg TID cohort, male, 95% CI (0.091, 1.966)): 0.423
participants without LOAC, number [12]: 52
participants without LOAC, percent [12]: (81.3)
participants with LOAC, number (400 mg TID, N=64, 12 weeks, mITT, placebo 20): 12
participants with LOAC, percent (400 mg TID, N=64, 12 weeks, mITT, placebo […]): 18.8%
RRR vs. placebo (%), LOAC (400 mg TID, mITT): 34.7%
RR vs. placebo, LOAC (400 mg TID, mITT, 95% CI 0.348, 1.226): 0.653
RD (risk difference) vs. placebo, LOAC (400 mg TID, mITT, 95% CI −0.238, 0.061): −0.088
OR vs. placebo [13]: 0.323
RD vs. Placebo [13]: −0.194
LOAC, number [14]: 7
OR vs. placebo [14]: 1.896
RD vs. Placebo [14]: 0.117
LOAC, number (400 mg TID, >2 exacerbations within 2 years): 0
LOAC, number [15]: 9
OR vs. placebo [15]: 0.643
RD vs. Placebo [15]: −0.082
LOAC, number [16]: 1
OR vs. placebo [16]: 0.417
RD vs. Placebo [16]: −0.090
LOAC, number [17]: 2
OR vs. placebo [17]: 0.250
RD vs. Placebo [17]: −0.257
LOAC, number [18]: 2
OR vs. placebo [18]: 0.218
RD vs. Placebo [18]: −0.245
LOAC, number (400 mg TID, age at onset ≥12-<18 years): 0
LOAC, number [19]: 6
OR vs. placebo [19]: 0.514
RD vs. Placebo [19]: −0.135
LOAC, number [20]: 10
OR vs. placebo [20]: 0.769
RD vs. Placebo [20]: −0.049
LOAC, number [21]: 4
OR vs. placebo [21]: 1.619
RD vs. Placebo [21]: 0.072
LOAC, number (400 mg TID, all others than low EOS and low FeNO): 8
